The test system of assay [1] is EGF uptake in HCT116 cells. Briefly: Alexa Fluor 488 EGF uptake in HCT116 cells. The assay is classed as cell-based, human. Conditions: HCT116, microscopy and flow cytometry, 5 min, vs control cells. As to the method:
(§1) For the analysis of EGF and LDL uptake, HCT116 cells were incubated with serum-free DMEM supplemented with Alexa Fluor 488 EGF complex or Alexa Fluor 488 acetylated LDL to a final concentration of 1 µg/L at 37 °C for 5 min. For immunofluorescence microscopy analyses, HCT116 cells treated with Alexa Fluor 488-labeled EGF or LDL were fixed with 4% paraformaldehyde for 20 min and incubated in 10 mg/L DAPI for 15 min. The cells were observed using a BZ-x800 fluorescence microscope (Keyence, IL, USA). For flow cytometry analysis, HCT116 cells treated with Alexa Fluor 488-labeled EGF or LDL were detached using trypsin/EDTA and suspended in PBS. The mean fluorescent intensity per 10,000 cells was analyzed using a flow cytometer (Gallios, Beckman Coulter Life Science, Pasadena, CA, USA). The data were analyzed using Kaluza 2.1 analysis software (Beckman Coulter Life Science).
For orientation: A flow cytometer gives signals particle by particle.

Assay [2] deals with T1, interaction between PGRMC1 and LDLR (Homo sapiens, UniProt O00264).
T1 construct: mammalian FLAG-tagged expression vector pCMV-FLAG-PGRMC1 (full-length); expressed in transfected cells; host or cells: HCT116
T1 sequence (O00264 whole entry): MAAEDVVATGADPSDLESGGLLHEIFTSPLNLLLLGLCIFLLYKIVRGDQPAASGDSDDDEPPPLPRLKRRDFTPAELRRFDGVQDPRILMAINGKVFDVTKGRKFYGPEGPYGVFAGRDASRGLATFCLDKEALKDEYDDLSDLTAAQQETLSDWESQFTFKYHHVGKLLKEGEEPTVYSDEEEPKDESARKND
Briefly: Co-immunoprecipitation of PGRMC1 and LDLR in HCT116 cells. The assay is classed as cell-based. Particulars: HCT116, FLAG-PGRMC1 co-IP, 12 h treatment. As to the method: (§2) An expression vector of pCMV-3xFLAG-PGRMC1 or an empty vector was transfected into HCT116 cells or HuH7 cells using the transfection reagent Lipofectamine 2000 (Invitrogen). The cells were incubated overnight with either GL or GlucoGL. Cells were then lysed with NP40 lysis buffer (20 mM Tris-HCl [pH 7.5], 150 mM NaCl, and 1% NP40). The lysates were incubated with 10 μL of equilibrated anti-FLAG (M2) agarose for 60 min at room temperature. Bound proteins were washed three times and subjected to SDS-PAGE and visualized through western blotting using antibodies against FLAG, EGFR, and LDLR. For analysis of the endogenous PGRMC1-binding with FLAG-PGRMC1, HCT116 cells (1 × 10^7 cells) were treated with vehicle or 250 μM SA and/or 10 μM hemin for 48 h, and the cell lysates were co-immunoprecipitated with anti-FLAG (M2) agarose. Bound proteins (endogenous PGRMC1 and FLAG-tagged PGRMC1) were visualized through western blotting using antibody against PGRMC1.

For another assay, the system named is HCT116 cells xenograft. Briefly: HCT116 xenograft in nude mice. The assay is classed as in vivo, mouse. Conditions: i.p. twice a week, vs control; for Tumor volume, in combination with CDDP: CDDP 2 mg/kg plus GL 400 mg/kg (day 22) or GlucoGL 100 mg/kg (from day 15). As to the method: All protocols for animal experiments in this study were approved by the Experimental Animal Committee of Keio University School of Medicine (approval number: 08024-(13), approval date: 30 September 2020). HCT116 cells (2 × 10^6 cells/mouse) with half of Matrigel (Corning, NY, USA) were transplanted subcutaneously into the flank of 7-week-old nude mice. Four days after the transplantation, tumor size was measured in three dimensions with calipers and grouped by tumor volume. CDDP (2 mg/kg), GL (400 mg/kg), or GlucoGL (100 mg/kg) were administered to the mice intraperitoneally, and the tumor volume was measured twice a week for 22 days.

The next assay has as its system EGF signaling. Briefly: EGF signaling (western blot) in HuH7 cells. Particulars: HuH7, EGF for 5 min. The assay is classed as cell-based, human. As to the method:
For analysis of EGFR signaling, cells were incubated overnight with GL or GlucoGL, and then EGF (100 ng/mL) was added for 5 min. Cells were lysed with RIPA buffer, and the lysates were subjected to SDS-PAGE and visualized through western blotting using antibodies against PGRMC1, EGFR, phospho-Y1068 EGFR, AKT, phospho-S473AKT, ERK, and phospho-T185 Y187 ERK.

Another assay addresses T2, heme-dimerized PGRMC1 (Homo sapiens, UniProt O00264).
T2 construct: human PGRMC1 intracellular domain residues 43-195; GST (N, cleaved yes); made in house; host or cells: E. coli BL21 (DE3)
Briefly: ITC binding to heme-dimerized PGRMC1. Particulars: for Kd / TΔS / ΔG / ΔH: ITC; for Kd: 298 K, 50 mM phosphate pH 7.0, heme-dimerized PGRMC1 (WT); for TΔS / ΔG / ΔH: heme-dimerized PGRMC1 (WT).

In assay [3] the test system is LDL uptake in HCT116 cells. In words: Alexa Fluor 488-labelled LDL uptake in HCT116 cells. The assay is classed as cell-based, human. Conditions: HCT116, microscopy and flow cytometry, 5 min. As to the method: as §1
The target in assay [4] is T3, interaction between PGRMC1 and EGFR (Homo sapiens, UniProt O00264).
T3 construct: mammalian FLAG-tagged expression vector pCMV-FLAG-PGRMC1 (full-length); expressed in transfected cells; host or cells: HCT116 or HuH7
T3 sequence (O00264 whole entry): as above
Briefly: Co-immunoprecipitation of PGRMC1 and EGFR in HuH7 cells. Conditions: HuH7, FLAG-PGRMC1 co-IP, 12 h treatment. The assay is classed as cell-based. As to the method:
as §2

Assay [5] concerns EGFR signaling (phosphorylation of EGFR, AKT, ERK). In words: EGF-induced EGFR signaling (western blot) in HCT116 cells. The assay is classed as cell-based, human. Conditions: for EGF-induced phosphorylation of EGFR, AKT and ERK: HCT116, EGF 100 ng/mL for 5 min. The text has this: […] Cells were lysed with RIPA buffer, and the lysates were subjected to SDS-PAGE and visualized through western blotting using antibodies against PGRMC1, EGFR, phospho-Y1068 EGFR, AKT, phospho-S473AKT, ERK, and phospho-T185 Y187 ERK.

The target in assay [6] is T3, interaction between PGRMC1 and EGFR. In words: Co-immunoprecipitation of PGRMC1 and EGFR in HCT116 cells. The assay is classed as cell-based. Conditions: HCT116, FLAG-PGRMC1 co-IP, 12 h treatment. As to the method:
as §2

The test system of another assay is HCT116 cells. In words: Chemosensitivity MTT assay in HCT116 cells. The assay is classed as cell-based, human. Conditions: Homo sapiens, HCT-116, HCT116 cell viability, MTT. On the technique in general: Tetrazolium assays rely on reduction of a dye to a coloured formazan, in cell work by metabolically active cells.
Where [7] appears, read: with CDDP (10 µM), read-out: IC50 CDDP.
The mark [8] stands for this setting: with erlotinib (20 µM), read-out: IC50 Erlotinib.

In general, Kd refers to a measure of binding affinity in units of concentration. A lower Kd goes with a tighter complex. By IC50 is commonly meant the concentration that gives 50% inhibition.

Where two headings read alike, the source gives them in different places.

T2 sequence (O00264 43-195): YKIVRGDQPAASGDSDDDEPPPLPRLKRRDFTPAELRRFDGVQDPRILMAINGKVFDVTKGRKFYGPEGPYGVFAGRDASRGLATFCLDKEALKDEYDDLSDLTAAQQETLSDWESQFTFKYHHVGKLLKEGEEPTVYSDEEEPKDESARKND
Method for heme-dimerized PGRMC1: Expression vectors for PGRMC1 point mutants were generated by site-directed mutagenesis with PCR.
Protein expression was induced by adding 1 mM isopropyl-β-thiogalactopyranoside (IPTG) and incubating at 37 °C for 4 h. After harvesting cells, the cell pellets were then resuspended in buffer containing 20 mM Tris-HCl (pH 7.5), 100 mM NaCl, and 0.1% Tween 20, sonicated twice at 4 °C for 5 min, and centrifuged at 20,000× g for 30 min. The supernatant was incubated with glutathione Sepharose 4B (GE Healthcare, Chicago, IL, USA) for 1 h at 4 °C. The resin was then washed five times with the same buffer, and the GST tag cleaved by adding Precision Protease (GE Healthcare) and incubating at 4 °C for 16 h. Apo-PGRMC1 or HMGB1 proteins was purified using size-exclusion chromatography in a Superdex 200 column (GE Healthcare). Heme-bound PGRMC1 was prepared by treating with 100 μM hemin and then purified using size-exclusion chromatography.
GL derivatives were dissolved in 3 mM ITC-Buffer and titrated into 100 μM apo-PGRMC1, heme-bound-PGRMC1, or HMGB1 protein. Titration was performed by injecting 2 µL of the syringe solution at intervals of 120 s. Binding isotherms were analyzed using SEDPHAT [35]. The binding of AG205 to apo- or heme-PGRMC1 (100 μM) was analyzed using a concentration of 3 mM containing 1% DMSO.

Regarding `CC1(C(=O)O)CCC2(C)CCC3(C)C(=CC(=O)C4C5(C)CCC(OC6OC(C(=O)O)C(O)C(O)C6OC6OC(CO)C(O)C(O)C6O)C(C)(C)C5CCC43C)C2C1` (stereo not shown) [Glucoglycyrrhizin (GlucoGL), Glucoglycyrrhizin], the “Uptake of labelled EGF” value in [1] was “significantly suppressed”. In [2], the “Interaction between PGRMC1 and LDLR” value is “inhibited this interaction more potently”. In addition, the “Tumor volume, in combination with CDDP” value with HCT116 cells xenograft was “significantly suppressed the tumor volume”. For the same compound, the EGF signaling entry in the assay on EGF signaling was “suppressed the EGF signaling”. Besides, on heme-dimerized PGRMC1, the affinity, expressed as Kd, was 1.38 µM; the TΔS is given as 7.44 K·kcal/mol; the ΔG was -8.00 kcal/mol; the ΔH is -0.56 kcal/mol. Moreover, the Labelled-LDL uptake entry in assay [3] is listed as “significantly suppressed”. Moreover, in assay [4], the “Interaction between PGRMC1 and EGFR” value was “inhibited the interaction”. In assay [5], the “EGF-induced phosphorylation of EGFR, AKT and ERK” value is “significantly suppressed”. In addition, in assay [5] (HCT116, early phase of EGF stimulation (5 or 10 min)), the “EGF signaling, time-course” value is “remarkable inhibitory effect”. For the same compound, in assay [6], the “Interaction between PGRMC1 and EGFR” value is “inhibited the interaction more potently”. Moreover, the IC50 with HCT116 cells (setting [7]) was 14.9 µM. Moreover, in the assay with HCT116 cells (setting [8]), the IC50 turned out to be 15.7 µM.
Turning to `CC1(C)[C@@H](O[C@H]2O[C@H](C(=O)O)[C@@H](O)[C@H](O)[C@H]2O[C@@H]2O[C@H](C(=O)O)[C@@H](O)[C@H](O)[C@H]2O)CC[C@]2(C)[C@H]3C(=O)C=C4[C@@H]5C[C@@](C)(C(=O)O)CC[C@]5(C)CC[C@@]4(C)[C@]3(C)CC[C@@H]12` [Glycyrrhizin (GL), Glycyrrhizin], in assay [1], the “Uptake of labelled EGF” value is recorded as “significantly suppressed”. Further, the “Interaction between PGRMC1 and LDLR” value in assay [2] is given as “inhibited”. In addition, the “Tumor volume, administered individually” value with HCT116 cells xenograft (22 days, CDDP 2 mg/kg, GL 400 mg/kg) is given as “no differences in tumor volume”. Further, the “Tumor volume, in combination with CDDP” value in the assay on HCT116 cells xenograft is reported as “significantly smaller”. Besides, the EGF signaling entry in the assay on EGF signaling is “suppressed the EGF signaling”. At heme-dimerized PGRMC1, the Kd turned out to be 52.7 µM, the TΔS was 4.61 K·kcal/mol, the ΔG was -5.84 kcal/mol and the ΔH is -1.23 kcal/mol. Also, the “Binding to heme-dimerized PGRMC1 relative to binding to HMGB1” value at heme-dimerized PGRMC1 (ratio of KD HMGB1 / PGRMC1) is on record as 4.23 times. Besides, the Labelled-LDL uptake result in assay [3] is given as “significantly suppressed”. Also, in [4], the “Interaction between PGRMC1 and EGFR” value is on record as “inhibited the interaction”. Besides, in assay [5], the “EGF-induced phosphorylation of EGFR, AKT and ERK” value is listed as “significantly suppressed”. Moreover, in [6], the “Interaction between PGRMC1 and EGFR” value is reported as “inhibited”. Also, the IC50 with HCT116 cells (setting [7]) was determined as 53.1 µM. The half-inhibitory concentration (IC50) in the assay with HCT116 cells (setting [8]) worked out at 52 µM.

The record behind these values is paper PMC8269059, “Glycyrrhizin Derivatives Suppress Cancer Chemoresistance by Inhibiting Progesterone Receptor Membrane Component 1” (Cancers, 2021).
